{"source": "patent US20150250911A1", "about": "“MALODOR COUNTERACTING COMPOSITIONS” (GIVAUDAN, S.A., priority 2012, published 2015)", "key": {"[1]": {"assay": "Sensory tests of compounds of formula (I) against 4 malodour compounds", "set-up": "species or system human; key: ++++: no malodour present/strong reduction in malodour; +++: medium reduction in malodour; ++: weak malodour reduction; +: no change from control; ◯: worse than control", "conditions": "reference malodour sample scored +", "protocol": "(§1) Sensory studies were performed in 120 ml Beetson jar. The test compounds were prepared in DEP (=Diethylphtalate) and pipetted onto a desized woven cotton piece of cloth placed at the bottom of a jar. Where two or more compounds were tested in the same jar, they were applied to separate areas of the cotton cloth. Prior the first assessment and between assessments, the jars were incubated at room temperature for one hour so that the headspace did reach equilibrium.\nThe same procedures as described in Example 5 have been followed.\nThe compounds of formula (I) were assessed by the trained volunteers against 4 malodour compounds, namely isovaleric acid, dimethyl disulfide, 2-methyl-3-mercaptobutan-1-ol, and 3-hydroxy-3-methyl hexanoic acid.\nFor the sensory test, participants were given the reference malodour sample and were told that this scored+on a scale as indicated below. They were then asked to assess and score the test jars in the specified sequence, with a 20 second gap between jars. The jars were given to the assessors blind in random permutations, with each volunteer smelling all permutations in duplicate.\nThe following score scale was used:\n++++: no malodour present/strong reduction in malodour +++: medium reduction in malodour ++: weak malodour reduction +: no change from control ◯: worse than control"}, "[2]": {"assay": "Sensory study in jars: malodour score by trained volunteers, DMDS malodour", "set-up": "species or system human", "conditions": "for Malodour Score (arith. means): 0-5 scale (4 = no change from control)", "protocol": "as §1\n(§2) For the sensory test, participants were given a reference malodour sample (comprising the same ingredients as the jar with the malodour) and were told that this scored 4 on a 0-5 scale. They were then asked to assess and score three test jars on a 0-5 scale in the specified sequence, with a 20 second gap between jars. The jars were given to the assessors blind in random permutations, with each volunteer smelling all three permutations in duplicate.\n(§3) 0: no malodour present 1: strong reduction in malodour 2 medium reduction in malodour 3: weak malodour reduction 4: no change from control 5: worse than control\n(§4) Approx. 20 trained volunteers did participate in each study twice."}, "[3]": {"assay": "Sensory study in jars: malodour score by trained volunteers, MO malodour", "set-up": "species or system human", "protocol": "as §1\nas §2, with “Sensory studies were performed following the procedure described in Example 5. For” for “For”, “the jars” for “the jar”, “the maldodour)” for “the malodour)”\nas §3, §4"}, "[4]": {"assay": "Sensory study in jars: malodour score by trained volunteers, IVA malodour", "set-up": "species or system human", "conditions": "0-5 scale (4 = no change from control); IVA (50 ul @ 0.06%) and 200 ul ORIVOL @0.1%", "protocol": "as §1\nas §2, with “Sensory studies were performed following the procedure described in Example 5. For” for “For”, “the jars” for “the jar”, “the maldodour)” for “the malodour)”\nas §3, §4"}, "[5]": {"assay": "Sensory study in jars: malodour score by trained volunteers, HMHA malodour", "set-up": "species or system human", "conditions": "0-5 scale (4 = no change from control); HMHA (50 ul @ 0.01%) and 200 ul ORIVOL @ 0.1%", "protocol": "as §1\nas §2, with “Sensory studies were performed following the procedure described in Example 5. For” for “For”, “the jars” for “the jar”, “the maldodour)” for “the malodour)”\nas §3, §4"}}}
{"compound": "CC(CO)CC1CCC(C(C)C)CC1", "note": "(stereo not shown) [Compound 5.1]", "values": [{"measurement": "Sensory score", "setting": "[1]", "result": "++++"}]}
{"compound": "CC(C)C1CCCC(C(C)C(C)CO)C1", "note": "(stereo not shown) [Compound 5.2, 3-(3-isopropylcyclohexyl)-2-methylbutan-1-ol]", "values": [{"measurement": "Sensory score", "setting": "[1]", "result": "++++"}]}
{"compound": "CC(CO)CC1CCCC(C(C)(C)C)C1", "note": "(stereo not shown) [Compound 5.3, 3-(3-tert-butylcyclohexyl)-2-methylpropan-1-ol]", "values": [{"measurement": "Sensory score", "setting": "[1]", "result": "++++"}]}
{"compound": "CCC(C)(C)C1CCC(O)CC1", "note": "(stereo not shown) [Compound 5.4]", "values": [{"measurement": "Sensory score", "setting": "[1]", "result": "++++"}]}
{"compound": "OC1CCCCCCCCCCC1", "note": "[Compound 5.5]", "values": [{"measurement": "Sensory score", "setting": "[1]", "result": "+++"}]}
{"compound": "CC(C)CC1CCC(CC(C)CO)CC1", "note": "(stereo not shown) [Compound 5.6, 3-(4-isobutylcyclohexyl)-2-methylpropan-1-ol]", "values": [{"measurement": "Sensory score", "setting": "[1]", "result": "+++"}]}
{"compound": "OC1CCC(C2CCCCC2)CC1", "note": "(stereo not shown) [Compound 5.7]", "values": [{"measurement": "Sensory score", "setting": "[1]", "result": "+++"}]}
{"compound": "OC1CCCCCCCCCC1", "note": "[Compound 5.9]", "values": [{"measurement": "Sensory score", "setting": "[1]", "result": "+++"}]}
{"compound": "OC1CCCCCCCCCCCC1", "note": "[Compound 5.10]", "values": [{"measurement": "Sensory score", "setting": "[1]", "result": "++++"}]}
{"compound": "CC1(O)CCCCCCCCCCCC1", "note": "[Compound 5.11]", "values": [{"measurement": "Sensory score", "setting": "[1]", "result": "++++"}]}
{"compound": "OC1CCCCCCCCCCCCCC1", "note": "[Compound 5.12]", "values": [{"measurement": "Sensory score", "setting": "[1]", "result": "++++"}]}
{"compound": "CCC(C)(C)C1CCC(O)CC1", "note": "(stereo not shown) [ORIVOL, 4-(tert-pentyl)cyclohexanol]", "values": [{"measurement": "Malodour Score (arith. means)", "setting": "[2]; DMDS 50 ul @ 0.5% and 200 ul ORIVOL @0.1%", "result": 2.862}, {"measurement": "Malodour Score (arith. means)", "setting": "[2]; DMDS (50 ul @ 0.06%) and 200 ul ORIVOL", "result": 0.91}, {"measurement": "Malodour Score (arith. means)", "setting": "[2]; DMDS (50 ul @ 0.5%) and 200 ul ORIVOL", "result": 1.46}, {"measurement": "reduction on malodour perceivable by the human nose compared to the malodour taken alone", "setting": "[2]; DMDS, Table 1, even at very low concentrations", "result": "significant reduction"}, {"measurement": "Malodour Score (arith. means)", "setting": "[3]; 0-5 scale (4 = no change from control), MO (50 ul @ 0.005%) and 200 ul ORIVOL @ 0.1%", "result": 2.375}, {"measurement": "reduction on malodour perceivable by the human nose compared to the malodour taken alone", "setting": "[3]; MO, IVA and HMHA, Table 2", "result": "significant reduction"}, {"measurement": "Malodour Score (arith. means)", "setting": "[4]", "result": 2.733}, {"measurement": "Malodour Score (arith. means)", "setting": "[5]", "result": 2.194}]}
